Where two headings read alike, the source gives them in different places.
Legend:
[1] = biological target: T1, EED (1-441)-His protein (Homo sapiens, UniProt O75530); assay: EED-H3K27Me3 peptide competition binding assay by AlphaScreen
T1 construct: 30 nM EED (1-441)-His protein
How it was run: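 Serially diluted compound (12 points, 3-fold) incubated 20 min with 30 nM EED(1-441)-His and 15 nM biotin-H3K27Me3(19-33) peptide in 25 mM HEPES pH 8, 0.02% Tween-20, 0.5% BSA. Ni-chelate acceptor/streptavidin donor beads (10 μg/mL each) added, 1 h rt dark; 615 nm emission normalized to controls, dose-response fit for IC50.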

[2] = biological target: wild type PRC2 (wtPRC2) complex (Homo sapiens, UniProt O75530); assay: EED LC-MS assay (SAH production by PRC2); type: biochemical
Chain of wild type PRC2 (wtPRC2) complex (O75530 whole entry): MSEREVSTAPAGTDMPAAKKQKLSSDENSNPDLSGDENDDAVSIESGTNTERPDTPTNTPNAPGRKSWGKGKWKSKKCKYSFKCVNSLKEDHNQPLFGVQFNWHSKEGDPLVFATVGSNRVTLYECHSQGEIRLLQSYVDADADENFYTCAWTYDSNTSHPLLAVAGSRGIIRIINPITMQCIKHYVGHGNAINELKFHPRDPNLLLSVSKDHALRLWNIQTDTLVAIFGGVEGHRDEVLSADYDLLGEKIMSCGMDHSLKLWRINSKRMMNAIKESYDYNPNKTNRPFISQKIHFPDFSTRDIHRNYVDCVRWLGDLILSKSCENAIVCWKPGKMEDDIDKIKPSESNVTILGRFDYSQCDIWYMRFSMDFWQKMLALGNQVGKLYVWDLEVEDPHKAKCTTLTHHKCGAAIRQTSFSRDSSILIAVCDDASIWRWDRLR
Chain of wild type PRC2 (wtPRC2) complex (Q15910 whole entry partner): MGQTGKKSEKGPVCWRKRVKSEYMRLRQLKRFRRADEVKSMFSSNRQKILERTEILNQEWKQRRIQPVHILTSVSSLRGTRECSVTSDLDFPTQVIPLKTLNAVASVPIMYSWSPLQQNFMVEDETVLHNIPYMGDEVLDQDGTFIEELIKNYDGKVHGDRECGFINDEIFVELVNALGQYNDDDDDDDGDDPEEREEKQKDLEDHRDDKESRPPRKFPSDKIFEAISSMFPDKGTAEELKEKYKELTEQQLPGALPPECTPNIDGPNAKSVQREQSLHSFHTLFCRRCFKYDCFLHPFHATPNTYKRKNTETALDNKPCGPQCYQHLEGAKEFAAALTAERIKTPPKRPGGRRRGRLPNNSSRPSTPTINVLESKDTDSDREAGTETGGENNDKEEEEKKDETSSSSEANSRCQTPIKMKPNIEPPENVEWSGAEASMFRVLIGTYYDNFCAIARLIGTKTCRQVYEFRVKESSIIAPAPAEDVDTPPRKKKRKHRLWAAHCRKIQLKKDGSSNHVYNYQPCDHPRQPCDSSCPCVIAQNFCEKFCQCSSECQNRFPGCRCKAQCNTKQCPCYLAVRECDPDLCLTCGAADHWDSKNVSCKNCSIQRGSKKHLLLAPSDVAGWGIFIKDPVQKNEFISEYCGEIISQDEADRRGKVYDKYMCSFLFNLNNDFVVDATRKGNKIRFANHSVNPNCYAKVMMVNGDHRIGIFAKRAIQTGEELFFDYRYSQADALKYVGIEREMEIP
Chain of wild type PRC2 (wtPRC2) complex (Q15022 whole entry partner): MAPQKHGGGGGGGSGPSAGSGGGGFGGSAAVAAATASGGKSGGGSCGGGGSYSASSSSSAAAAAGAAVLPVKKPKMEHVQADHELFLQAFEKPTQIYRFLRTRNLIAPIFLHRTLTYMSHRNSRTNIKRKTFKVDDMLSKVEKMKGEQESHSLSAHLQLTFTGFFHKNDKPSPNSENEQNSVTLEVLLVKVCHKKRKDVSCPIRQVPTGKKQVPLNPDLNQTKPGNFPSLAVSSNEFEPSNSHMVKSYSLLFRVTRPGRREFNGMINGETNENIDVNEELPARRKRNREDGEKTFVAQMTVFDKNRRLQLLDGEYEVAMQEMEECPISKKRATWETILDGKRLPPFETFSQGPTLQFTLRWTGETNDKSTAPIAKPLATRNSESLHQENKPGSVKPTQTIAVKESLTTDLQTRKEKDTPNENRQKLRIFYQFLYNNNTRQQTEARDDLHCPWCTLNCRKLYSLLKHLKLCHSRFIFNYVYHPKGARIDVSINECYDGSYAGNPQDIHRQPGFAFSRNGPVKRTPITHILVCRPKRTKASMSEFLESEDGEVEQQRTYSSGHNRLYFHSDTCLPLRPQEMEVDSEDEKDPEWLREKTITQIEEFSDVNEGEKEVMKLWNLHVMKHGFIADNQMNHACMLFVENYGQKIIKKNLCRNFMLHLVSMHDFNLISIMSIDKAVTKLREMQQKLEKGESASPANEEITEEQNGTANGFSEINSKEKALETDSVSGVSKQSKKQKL
Chain of wild type PRC2 (wtPRC2) complex (Q09028 whole entry partner): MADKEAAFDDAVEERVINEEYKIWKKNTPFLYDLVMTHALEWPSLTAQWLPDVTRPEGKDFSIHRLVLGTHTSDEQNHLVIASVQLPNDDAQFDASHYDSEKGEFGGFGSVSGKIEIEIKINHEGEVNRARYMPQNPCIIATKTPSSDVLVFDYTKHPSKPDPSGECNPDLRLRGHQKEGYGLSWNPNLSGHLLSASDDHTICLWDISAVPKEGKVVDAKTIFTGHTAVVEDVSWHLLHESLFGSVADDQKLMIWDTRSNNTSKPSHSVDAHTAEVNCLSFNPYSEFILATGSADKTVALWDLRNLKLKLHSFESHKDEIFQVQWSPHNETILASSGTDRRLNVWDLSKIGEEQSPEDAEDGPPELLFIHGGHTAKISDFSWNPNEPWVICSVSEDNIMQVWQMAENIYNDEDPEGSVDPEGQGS
Chain of wild type PRC2 (wtPRC2) complex (Q6ZN18 whole entry partner): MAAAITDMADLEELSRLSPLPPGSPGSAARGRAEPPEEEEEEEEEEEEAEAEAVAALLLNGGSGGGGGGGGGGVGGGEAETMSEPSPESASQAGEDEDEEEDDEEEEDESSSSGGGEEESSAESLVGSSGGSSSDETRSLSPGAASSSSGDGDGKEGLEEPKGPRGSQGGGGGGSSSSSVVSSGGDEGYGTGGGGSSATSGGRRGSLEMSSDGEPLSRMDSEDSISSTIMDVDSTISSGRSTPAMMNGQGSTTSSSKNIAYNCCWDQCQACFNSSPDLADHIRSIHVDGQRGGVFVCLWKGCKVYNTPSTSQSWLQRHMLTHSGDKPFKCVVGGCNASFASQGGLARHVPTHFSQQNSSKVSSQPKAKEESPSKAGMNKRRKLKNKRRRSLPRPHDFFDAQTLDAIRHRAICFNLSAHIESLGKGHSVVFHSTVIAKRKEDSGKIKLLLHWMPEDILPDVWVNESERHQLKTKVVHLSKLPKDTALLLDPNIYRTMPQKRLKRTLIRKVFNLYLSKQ
How it was run: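 Pentameric PRC2 (EZH2, SUZ12, EED, Rbap48, AEBP), 12 nM final, preincubated 20 min with compound and SAM, then 1.5 μM biotinylated H3K27me0 peptide, 1 μM SAM, pH 8.0, 120 min at rt. SAH quantified by LC-MS/MS with d4-SAH; control-normalized activity fitted for IC50.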

[3] = test system: H3K27 methylation in G401 cell; assay: ELISA (H3K27 methylation) assay in G401 cells; type: cell-based, human; details: Homo sapiens
How it was run: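 G401 cells treated 48 h with 3-fold dilutions (8 or 12 points, top 20 μM). Acid-extracted histones probed by ELISA for H3K27me3 or H3K27me2 with ECL readout, normalized to total H3. Percent inhibition versus DMSO fitted to dose-response curve for IC50.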

[4] = EED-H3K27Me3 peptide competition, AlphaScreen, read-out: (a) IC50 EED Alphascreen binding Qualified
[5] = PRC2 LC-MS assay, read-out: (b) IC50 EED LC-MS Qualified
[6] = G-401, H3K27 methylation ELISA, read-out: (c) IC50 ELISA Qualified
[7] = read-out: (a) IC50, EED Alphascreen binding Qualified
[8] = read-out: (b) IC50, EED LC-MS Qualified
[9] = G-401, read-out: (c) IC50, ELISA Qualified

T1 sequence (O75530 whole entry): as the sequence (O75530 whole entry) above

Row | Structure (SMILES) | IC50 [1, 4] [nM] | IC50 [2, 5] [nM] | IC50 [3, 6] [nM] | IC50 [1, 7] [nM] | IC50 [2, 8] [nM] | IC50 [3, 9] [nM]
1 | COc1cccc(F)c1CNc1ccc(-c2ccnc(C(F)F)c2C)c2nncn12 [Example 277, 8-(2-(difluoromethyl)-3-methylpyridin-4-yl)-N-(2-fluoro-6-methoxybenzyl)-[1,2,4]triazolo[4,3-a]pyridin-5-amine] | 14.2 | 32.2 | 12 | – | – | –
2 | COc1ccccc1CNc1ccc(-c2ccc(CN3CC(F)(F)C3)cc2)c2nncn12 [Example 54, 8-(4-((3,3-difluoroazetidin-1-yl)methyl)phenyl)-N-(2-methoxybenzyl)-[1,2,4] triazolo[4,3-a]pyridin-5-amine] | – | – | – | 19 | 230 | 56.6
3 | COc1cccc(F)c1CNc1ccc(-c2ccc(N3CCOCC3)nc2)c2nncn12 [Example 172, N-(2-fluoro-6-methoxybenzyl)-8-(6-morpholinopyridin-3-yl)-[1,2,4]triazolo [4,3-a]pyridin-5-amine] | 56.4 | 162 | 111 | – | – | –

Other lines, results leading:

Row | IC50 [1, 4] [nM] | IC50 [2, 5] [nM] | IC50 [3, 6] [nM] | IC50 [1, 7] [nM] | IC50 [2, 8] [nM] | IC50 [3, 9] [nM] | Structure (SMILES)
4 | 12.7 | 23.4 | 6.3 | – | – | – | COc1cccc(F)c1CNc1ccc(-c2cc(C)nn2C)c2nncn12 [Example 288, 8-(1,3-dimethyl-1H-pyrazol-5-yl)-N-(2-fluoro-6-methoxybenzyl)-[1,2,4]triazolo[4,3-a] pyridin-5-amine]
5 | – | – | – | 40.4 | 152 | 43.1 | COc1cccc(F)c1CNc1ccc(-c2ccc(OCCO)cc2)c2nncn12 [Example 157, 2-(4-(5-((2-fluoro-6-methoxybenzyl)amino)-[1,2,4]triazolo[4,3-a]pyridin-8-yl)phenoxy)ethanol]
6 | – | – | – | 13.6 | 106 | 34.8 | COc1cccc(F)c1CNc1ccc(-c2cccc(S(C)(=O)=O)c2)c2nncn12 [Example 142, N-(2-fluoro-6-methoxybenzyl)-8-(3-(methylsulfonyl)phenyl)-[1,2,4]triazolo[4,3-a]pyridin-5-amine]
7 | 7.6 | 24.5 | 10.4 | – | – | – | COc1cccc(F)c1CNc1ccc(-c2cnccc2CO)c2nncn12 [Example 345, (3-(5-((2-fluoro-6-methoxy benzyl)amino)-[1,2,4]triazolo[4,3-a]pyridin-8-yl)pyridin-4-yl)methanol]
8 | – | – | – | 49 | 102 | 41 | COc1cccc(F)c1CNc1ccc(-c2ccc(F)nc2)c2nncn12 [Example 159, N-(2-fluoro-6-methoxybenzyl)-8-(6-fluoropyridin-3-yl)-[1,2,4]triazolo[4,3-a] pyridin-5-amine]
